# Results taken from ChEMBL document CHEMBL4732080, “Polypharmacological drug actions of recently FDA approved antibiotics” (Eur J Med Chem, 2021).
# What was measured:
# [1] = target: Albumin (Homo sapiens, UniProt P02768); experiment: Protein binding to human serum albumin; format: ADME, cell-free; settings: read-out: PB (converted)
# [2] = Terminal half life in human at 10 mg/kg, administered as single dose measured over 2 hrs; format: ADME, organism-based; settings: in vivo, read-out: beta t1/2 (converted)
# [3] = Terminal half life in human; format: ADME; settings: read-out: beta t1/2 (converted)
# [4] = test system: Staphylococcus aureus; experiment: Antibacterial activity against methicillin-resistant Staphylococcus aureus; format: functional
# Albumin, sequence (P02768 whole entry): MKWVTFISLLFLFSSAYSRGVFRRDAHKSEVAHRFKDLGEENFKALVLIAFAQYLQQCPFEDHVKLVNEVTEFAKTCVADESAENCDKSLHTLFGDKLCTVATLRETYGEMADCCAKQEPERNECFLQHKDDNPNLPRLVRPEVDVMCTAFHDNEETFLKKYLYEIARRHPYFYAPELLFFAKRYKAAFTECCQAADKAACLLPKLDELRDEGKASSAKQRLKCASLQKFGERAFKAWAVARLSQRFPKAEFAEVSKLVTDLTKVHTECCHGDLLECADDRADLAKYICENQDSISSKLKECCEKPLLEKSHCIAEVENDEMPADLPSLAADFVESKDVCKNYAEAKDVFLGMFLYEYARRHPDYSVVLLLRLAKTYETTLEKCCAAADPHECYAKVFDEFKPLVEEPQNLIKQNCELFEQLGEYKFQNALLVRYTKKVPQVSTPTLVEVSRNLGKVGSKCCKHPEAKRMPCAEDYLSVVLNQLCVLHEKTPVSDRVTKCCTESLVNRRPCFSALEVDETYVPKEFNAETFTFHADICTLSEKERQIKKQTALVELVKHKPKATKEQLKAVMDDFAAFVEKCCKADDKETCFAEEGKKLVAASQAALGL
half-life [2],SMILES,fraction unbound [1],half-life [3],MIC50 [4]
7.5 h,CCCCCCCCCCNCCN[C@@]1(C)C[C@H](O[C@H]2[C@H](Oc3c4cc5cc3Oc3ccc(cc3Cl)[C@@H](O)[C@@H](NC(=O)[C@@H](CC(C)C)NC)C(=O)N[C@@H](CC(N)=O)C(=O)N[C@H]5C(=O)N[C@H]3C(=O)N[C@H](C(=O)N[C@H](C(=O)O)c5cc(O)c(CNCP(=O)(O)O)c(O)c5-c5cc3ccc5O)[C@H](O)c3ccc(c(Cl)c3)O4)O[C@H](CO)[C@@H](O)[C@@H]2O)O[C@@H](C)[C@H]1O [TELAVANCIN],0.07,,
,CN[C@H](CC(C)C)C(=O)N[C@H]1C(=O)N[C@@H](CC(N)=O)C(=O)N[C@H]2C(=O)N[C@H]3C(=O)N[C@H](C(=O)N[C@H](C(=O)O)c4cc(O)cc(O)c4-c4cc3ccc4O)[C@H](O)c3ccc(c(Cl)c3)Oc3cc2cc(c3O[C@@H]2O[C@H](CO)[C@@H](O)[C@H](O)[C@H]2O[C@H]2C[C@](C)(N)[C@H](O)[C@H](C)O2)Oc2ccc(cc2Cl)[C@H]1O [VANCOMYCIN],0.9,6 h,1 µg/mL
,CN[C@H](CC(C)C)C(=O)N[C@H]1C(=O)N[C@@H](CC(N)=O)C(=O)N[C@H]2C(=O)N[C@H]3C(=O)N[C@H](C(=O)N[C@H](C(=O)O)c4cc(O)cc(O)c4-c4cc3ccc4O)[C@H](O[C@H]3C[C@](C)(N)[C@@H](O)[C@H](C)O3)c3ccc(c(Cl)c3)Oc3cc2cc(c3O[C@@H]2O[C@H](CO)[C@@H](O)[C@H](O)[C@H]2O[C@H]2C[C@](C)(NCc3ccc(-c4ccc(Cl)cc4)cc3)[C@@H](O)[C@H](C)O2)Oc2ccc(cc2Cl)[C@H]1O [ORITAVANCIN],0.1,195 h,
